From patent publication US4699928A, “Fluoroallylamine derivatives” (Merrell Dow Pharmaceuticals Inc., priority 1986, dated 1987)

Columns and labels:
MAO-A and MAO-B = conditions: cited from earlier work
MAO-B versus MAO-A = assay: Selectivity of inhibition of MAO-B versus MAO-A in vitro (14C phenethylamine / 14C 5-hydroxytryptamine); format: biochemical; conditions: rat, brain mitochondria
Experimental: Mitochondria are prepared from rat brain by homogenation in phosphate buffer (0.1 M, pH 7.2) followed by differential centrifugation. The mitochondria are suspended in the same buffer, the test compound is added at the desired concentration, and the system is incubated. At different time intervals, aliquots are taken and MAO activity is measured using ^14 C p-tyramine (a mixed substrate) as the substrate (See A. Christmas et al., supra).
(C) The selectivity of a compound of Formula I with respect to inhibition of MAO-A and MAO-B can be determined by repeating the procedure of Part B and measuring the MAO activity using ^14 C 5-hydroxytryptamine (a preferred substrate for MAO-A) and ^14 C phenethylamine (a preferred substrate for MAO-B) as the substrate.

MAO = assay: Inhibition of MAO in vitro, partially purified rat brain mitochondria, 14C p-tyramine substrate; format: biochemical; conditions: tested as hydrochloride salt
Excerpt: Inhibition of MAO--In vitro testing
(A) The ability of a compound of Formula I to inhibit MAO can be determined in vitro by the method of A. Christmas et al., Br. J. Pharmacol., 45, 490 (1972) in partially purified mitochondria from rat brain using ^14 C p-tyramine as the substrate. The MAO inhibitory activity of a compound is expressed as the "IC50 " value, which is the molar concentration required to produce 50% inhibition of the enzyme.

depression = conditions: in vivo; cited from earlier work
[1] = test system: heart rate response to p-tyramine; assay: Cheese effect: potentiation of response to intravenous p-tyramine, pithed rats; format: in vivo, male Sprague-Dawley rats; conditions: p-tyramine i.v.
Experimental: (§1) The following test procedures can be employed to assess the potential of a compound of Formula I for producing the "cheese effect": […]
(§2) Eighteen hours later the animals are anaesthetized with pentobarbitone (60 mg/kg i.p.), in some instances pithed, and in all cases set up for recording heart rate and blood pressure by standard techniques.

[2] = test system: heart rate response to p-tyramine; assay: Cheese effect: potentiation of response to intraduodenal p-tyramine, anaesthetized rats; format: in vivo, male Sprague-Dawley rats; conditions: p-tyramine i.d.
Experimental: as §1, §2

[3] = low dosages where preferential inhibition of MAO-B occurs; cited from earlier work
MAO-A = conditions: cited from earlier work
MAO-B = conditions: cited from earlier work

N[C@@H]1C[C@H]1c1ccccc1 (relative stereo) [tranylcypromine]
preference in action upon MAO (MAO-A and MAO-B): not preferential

NC/C(=C\F)CSc1ccccc1 [(E)-2-thiophenoxymethyl-3-fluoroallylamine]
Ratio B:A (inhibitory activity against MAO-B versus MAO-A) (MAO-B versus MAO-A): 100

NC/C(=C/F)CSc1ccc(F)cc1 [(Z)-2-(4'-fluorothiophenoxy) methyl-3-fluoroallylamine]
Ratio B:A (inhibitory activity against MAO-B versus MAO-A) (MAO-B versus MAO-A): 100

NC/C(=C/F)COc1ccccc1 [(Z)-2-phenoxymethyl-3-fluoroallylamine]
IC50 (MAO): 1 µM

NC/C(=C/F)CSc1ccccc1 [(Z)-2-thiophenoxymethyl-3-fluoroallylamine]
IC50 (MAO): 1 µM
Ratio B:A (inhibitory activity against MAO-B versus MAO-A) (MAO-B versus MAO-A): 1,000

C#CCN(C)[C@H](C)Cc1ccccc1 [L-deprenyl, reference compound]
clinical antidepressant effect (depression): clinically effective antidepressant agents
Potentiation of heart rate response to p-tyramine ([1]; 0.1 mg/kg): 1.3 fold
Potentiation of heart rate response to p-tyramine ([1]; 1.0 mg/kg): 2.2 fold
Potentiation of heart rate response to p-tyramine ([2]; 0.1 mg/kg, in words): no effect
Potentiation of heart rate response to p-tyramine ([2]; 1.0 mg/kg): 2.1 fold
cheese effect [3]: not observed

CNC/C(=C/F)COc1ccc(Cl)cc1Cl [N-methyl (Z)-2-(2',4'-dichlorophenoxy)methyl-3-fluoroallylamine]
Ratio B:A (inhibitory activity against MAO-B versus MAO-A) (MAO-B versus MAO-A): 100

C#CCN(C)CCCOc1ccc(Cl)cc1Cl [clorgyline, reference compound]
clinical antidepressant effect (depression): clinically effective antidepressant agents
Potentiation of heart rate response to p-tyramine ([1]; 0.1 mg/kg): 5.2 fold
Potentiation of heart rate response to p-tyramine ([2]; 0.1 mg/kg): 5.6 fold
IC50 (MAO): 0.01 µM
preferential inhibition of MAO-A (MAO-A): MAO-A is preferentially inhibited

Cc1cc(C(=O)NNCc2ccccc2)no1 [isocarboxazid]
preference in action upon MAO (MAO-A and MAO-B): not preferential

C#CCN(C)Cc1ccccc1 [pargyline]
clinical antidepressant effect (depression): clinically effective antidepressant agents
dose-dependence of selectivity (MAO-A and MAO-B; lower versus higher dosages): selective inhibitors at lower dosages, but are not selective inhibitors at higher dosages
IC50 (MAO): 2 µM
preferential inhibition of MAO-B (MAO-B): MAO-B is preferentially inhibited

NNCCc1ccccc1 [phenelzine]
preference in action upon MAO (MAO-A and MAO-B): not preferential
